The test system of one assay is Epidermal growth factor receptor (Homo sapiens), P00533 [L858R,T790M]. Put plainly: Inhibition of human EGFR T790M/L858R double mutant assessed as residual activity at 1 uM relative to control. It counts as protein assay.
Chain of Mitogen-activated protein kinase 14 (Homo sapiens) (Q16539 whole entry): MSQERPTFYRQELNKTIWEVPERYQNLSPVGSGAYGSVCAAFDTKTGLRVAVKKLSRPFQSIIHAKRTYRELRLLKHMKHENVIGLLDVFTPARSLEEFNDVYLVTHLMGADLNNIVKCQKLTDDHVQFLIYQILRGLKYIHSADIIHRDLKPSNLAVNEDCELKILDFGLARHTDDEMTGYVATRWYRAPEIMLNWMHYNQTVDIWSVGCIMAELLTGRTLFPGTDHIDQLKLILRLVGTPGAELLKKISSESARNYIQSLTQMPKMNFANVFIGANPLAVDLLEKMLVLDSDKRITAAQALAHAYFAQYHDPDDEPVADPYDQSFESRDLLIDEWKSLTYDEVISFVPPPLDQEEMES
Take `COc1ccc(-c2nc3cc(-c4csc(C(=O)NCCC(C)C)c4)cnc3[nH]2)cc1`: the Activity was determined as 76%.

Take `COc1ccc(-c2nc3cc(-c4csc(C(=O)NCC(C)(C)C)c4)cnc3[nH]2)cc1`: the Activity was 94%.

Turning to `COc1ccc(-c2nc3cc(-c4csc(C(=O)NCC(C)C)c4)cnc3[nH]2)cc1`, the Activity turned out to be 90%.

The next assay addresses Mitogen-activated protein kinase 14 (Homo sapiens) (UniProt Q16539). Put plainly: Inhibition of human SAPK2alpha assessed as residual activity at 1 uM relative to control.
Consider `COc1ccc(-c2nc3cc(-c4csc(C(=O)NCCC(C)C)c4)cnc3[nH]2)cc1`, for which the Activity turned out to be 111%.

On to `COc1ccc(-c2nc3cc(-c4csc(C(=O)NCC(C)(C)C)c4)cnc3[nH]2)cc1`, for which the Activity stood at 93%.

Take `COc1ccc(-c2nc3cc(-c4csc(C(=O)NCC(C)C)c4)cnc3[nH]2)cc1`: the Activity was 107%.

A further assay deals with T1, Serine/threonine-protein kinase TBK1 (Homo sapiens, UniProt Q9UHD2).
T1 sequence (Q9UHD2 whole entry): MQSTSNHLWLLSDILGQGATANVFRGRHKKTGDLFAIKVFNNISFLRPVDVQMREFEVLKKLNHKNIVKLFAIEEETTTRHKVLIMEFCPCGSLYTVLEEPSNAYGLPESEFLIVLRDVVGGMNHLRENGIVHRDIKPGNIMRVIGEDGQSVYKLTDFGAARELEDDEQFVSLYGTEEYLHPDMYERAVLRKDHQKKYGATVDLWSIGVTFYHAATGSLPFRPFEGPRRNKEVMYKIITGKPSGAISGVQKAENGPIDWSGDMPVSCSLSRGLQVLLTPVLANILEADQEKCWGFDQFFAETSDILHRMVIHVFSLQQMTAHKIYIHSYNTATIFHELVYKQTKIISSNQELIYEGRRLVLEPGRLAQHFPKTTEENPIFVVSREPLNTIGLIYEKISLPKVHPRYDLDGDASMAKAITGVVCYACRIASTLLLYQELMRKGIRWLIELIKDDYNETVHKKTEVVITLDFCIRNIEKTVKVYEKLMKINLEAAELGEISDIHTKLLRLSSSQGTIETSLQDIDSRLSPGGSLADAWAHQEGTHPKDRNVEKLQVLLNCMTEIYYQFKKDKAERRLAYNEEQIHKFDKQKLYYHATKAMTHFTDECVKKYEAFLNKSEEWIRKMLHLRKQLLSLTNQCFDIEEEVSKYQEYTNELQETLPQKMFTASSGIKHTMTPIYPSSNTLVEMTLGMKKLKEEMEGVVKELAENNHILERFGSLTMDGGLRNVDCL
Put plainly: Inhibition of recombinant full-length TBK1 (unknown origin) using CK1tide as substrate by microfluidic mobility shift assay.
Turning to `COc1ccc(-c2nc3cc(-c4csc(C(=O)NCCC(C)C)c4)cnc3[nH]2)cc1`, the IC50 – broadly, the concentration that gives 50% inhibition – stood at 143 nM.

Regarding `COc1ccc(-c2nc3cc(-c4csc(C(=O)NCC(C)(C)C)c4)cnc3[nH]2)cc1`, the concentration for half-maximal inhibition (IC50) came to 84 nM.

Turning to `COc1ccc(-c2nc3cc(-c4csc(C(=O)NCC(C)C)c4)cnc3[nH]2)cc1`, the IC50 stood at 77 nM.

The record behind these values is ChEMBL document CHEMBL3124838, “Discovery of 6-aryl-azabenzimidazoles that inhibit the TBK1/IKK-ε kinases” (Bioorg Med Chem Lett, 2014).
